Molecular target: T1, mTOR (Homo sapiens, UniProt P42345)
T1 construct: FLAG; made in house
Assay: In Vitro mTOR Kinase Assay (Echo), Test (a)(ii)
Type: biochemical
Conditions: read-out: mTOR Kinase Assay (Echo)
Procedure, shortened: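 Enzyme: HEK293-expressed, FLAG-purified mTOR C-terminal fragment (aa 1362-2549). Rxn 2 h RT with biotinylated peptide, stopped with EDTA 50 mM/BSA/Tris pH 7.4. Detection: T389 phospho-antibody AlphaScreen, 680 nm excitation. IC50.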

T1 sequence (P42345 1362-2549): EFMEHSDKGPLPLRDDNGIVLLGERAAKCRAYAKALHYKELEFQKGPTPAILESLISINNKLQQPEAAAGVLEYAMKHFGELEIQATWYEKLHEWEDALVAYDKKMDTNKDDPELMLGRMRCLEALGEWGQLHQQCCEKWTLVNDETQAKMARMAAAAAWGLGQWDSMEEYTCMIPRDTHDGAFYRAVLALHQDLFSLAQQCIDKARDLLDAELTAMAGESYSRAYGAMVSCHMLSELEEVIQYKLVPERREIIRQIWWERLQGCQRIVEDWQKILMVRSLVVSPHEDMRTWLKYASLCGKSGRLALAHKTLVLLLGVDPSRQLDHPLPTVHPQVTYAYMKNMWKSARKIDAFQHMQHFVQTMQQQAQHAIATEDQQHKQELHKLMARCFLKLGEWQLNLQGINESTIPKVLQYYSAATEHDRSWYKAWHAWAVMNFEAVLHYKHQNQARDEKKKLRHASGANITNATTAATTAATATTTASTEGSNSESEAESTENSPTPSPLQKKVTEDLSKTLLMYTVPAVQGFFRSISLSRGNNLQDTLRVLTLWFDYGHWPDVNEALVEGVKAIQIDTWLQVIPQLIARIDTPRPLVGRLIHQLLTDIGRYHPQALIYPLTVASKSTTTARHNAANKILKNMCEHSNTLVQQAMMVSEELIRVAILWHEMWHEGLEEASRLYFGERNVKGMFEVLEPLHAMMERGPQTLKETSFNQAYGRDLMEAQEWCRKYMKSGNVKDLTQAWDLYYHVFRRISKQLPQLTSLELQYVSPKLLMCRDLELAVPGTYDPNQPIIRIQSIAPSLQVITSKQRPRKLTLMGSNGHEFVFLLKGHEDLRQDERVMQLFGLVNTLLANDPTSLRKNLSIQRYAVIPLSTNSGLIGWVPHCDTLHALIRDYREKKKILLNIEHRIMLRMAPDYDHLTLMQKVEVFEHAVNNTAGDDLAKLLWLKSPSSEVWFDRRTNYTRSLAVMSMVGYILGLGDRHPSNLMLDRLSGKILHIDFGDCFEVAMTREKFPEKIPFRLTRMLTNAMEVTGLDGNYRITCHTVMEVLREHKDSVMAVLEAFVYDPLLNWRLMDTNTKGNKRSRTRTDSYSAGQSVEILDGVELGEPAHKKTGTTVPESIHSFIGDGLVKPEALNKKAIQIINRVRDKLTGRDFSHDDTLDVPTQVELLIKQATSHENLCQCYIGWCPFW

| Compound | IC50 [nM] |
| --- | --- |
| C[C@H]1COCCN1c1cc(C2(S(=O)(=O)c3ccncc3)CC2)nc(-c2ccc(NC(=O)NC3CC3)cc2)n1 [Example 6m, 3-cyclopropyl-1-[4-[4-[(3S)-3-methylmorpholin-4-yl]-6-(1-pyridin-4-ylsulfonylcyclopropyl)pyrimidin-2-yl]phenyl]urea] | 0.936 |
| Cn1cc(NC(=O)Nc2ccc(-c3nc(N4CCOCC4)cc(C4(S(C)(=O)=O)CC4)n3)cc2)cn1 [Example 12i, 3-(1-methylpyrazol-4-yl)-1-[4-[4-(1-methylsulfonylcyclopropyl)-6-morpholin-4-ylpyrimidin-2-yl]phenyl]urea] | 0.771 |
| C[C@H]1COCCN1c1cc(C2(S(=O)(=O)c3ccncc3)CC2)nc(-c2ccc(NC(=O)NCCN(C)C)cc2)n1 [Example 6e, 3-(2-dimethylaminoethyl)-1-[4-[4-[(3S)-3-methylmorpholin-4-yl]-6-(1-pyridin-4-ylsulfonylcyclopropyl)pyrimidin-2-yl]phenyl]urea] | 67.3 |

Results, then the molecule that gave them:

| IC50 [nM] | Compound |
| --- | --- |
| 230 | C[C@H]1COCCN1c1cc(C2(S(C)(=O)=O)CC2)nc(-c2ccc(NC(=O)NCCN3CCCC3)cc2)n1 [Example 2y, 1-[4-[4-[(3S)-3-methylmorpholin-4-yl]-6-(1-methylsulfonylcyclopropyl)pyrimidin-2-yl]phenyl]-3-(2-pyrrolidin-1-ylethyl)urea] |
| 0.248 | C[C@H]1COCCN1c1cc(C2(S(C)(=O)=O)CCC2)nc(-c2ccc(NC(=O)Nc3ccccn3)cc2)n1 [Example 5l, 1-[4-[4-[(3S)-3-methylmorpholin-4-yl]-6-(1-methylsulfonylcyclobutyl)pyrimidin-2-yl]phenyl]-3-pyridin-2-yl-urea] |

Same assay, conditions: table of enzyme assay Test (a)(ii); read-out: Test (a)(ii) IC50

| Compound | IC50 [nM] |
| --- | --- |
| CCNC(=O)Nc1ccc(-c2nc(N3CCOC[C@@H]3C)cc(C3(S(=O)(=O)c4ccc(C(N)=O)cc4Cl)CC3)n2)cc1 [Example 85a, 3-chloro-4-[1-[2-[4-(ethylcarbamoylamino)phenyl]-6-[(3S)-3-methylmorpholin-4-yl]pyrimidin-4-yl]cyclopropyl]sulfonylbenzamide] | 3.13 |
| C[C@H]1COCCN1c1cc(C2(S(=O)(=O)c3ccc(F)c(F)c3)CC2)nc(-c2ccc(NC(=O)Nc3cnn(C)c3)cc2)n1 [Example 64k, 1-[4-[4-[1-(3,4-difluorophenyl)sulfonylcyclopro-pyl]-6-[(3S)-3-methylmorpholin-4-yl]pyrimidin-2-yl]phenyl]-3-(1-methylpyrazol-4-yl)urea] | 1.44 |
| C[C@H]1COCCN1c1cc(C2(S(=O)(=O)CCCO)CC2)nc(-c2ccc(NC(=O)NCC(F)F)cc2)n1 [Example 36cm, 3-(2,2-difluoroethyl)-1-[4-[4-[1-(3-hydroxypropylsulfonyl)cyclopropyl]-6-[(3S)-3-methylmorpholin-4-yl]pyrimidin-2-yl]phenyl]urea] | 9.46 |
| O=C(Nc1ccc(-c2nc(N3CCOCC3)cc(C3(S(=O)(=O)C4CC4)CC3)n2)cc1)NC1CC1 [Example 13, 3-Cyclopropyl-1-[4-[4-(1-cyclopropylsulfonylcyclopropyl)-6-morpholin-4-ylpyrimidin-2-yl]phenyl]urea] | 3.57 |
| Cc1nc(S(=O)(=O)C2(c3cc(N4CCOC[C@@H]4C)nc(-c4ccc(NC(=O)NCC(F)F)cc4)n3)CC2)sc1C [Example 80, 3-(2,2-Difluoroethyl)-1-[4-[4-[1-[(4,5-dimethyl-1,3-thiazol-2-yl)sulfonyl]cyclopropyl]-6-[(3S)-3-methylmorpholin-4-yl]pyrimidin-2-yl]phenyl]urea] | 19.7 |
| C[C@H]1COCCN1c1cc(C2(S(=O)(=O)C3CC3)CCC2)nc(-c2ccc(NC(=O)NC3CC3)cc2)n1 [Example 36e, 3-cyclopropyl-1-[4-[4-(1-cyclopropylsulfonylcyclobutyl)-6-[(3S)-3-methylmorpholin-4-yl]pyrimidin-2-yl]phenyl]urea] | 6.67 |
| CNC(=S)Nc1ccc(-c2nc(N3CCOC[C@@H]3C)cc(C3(S(C)(=O)=O)CC3)n2)cc1 [Example 35, 3-Methyl-1-[4-[4-[(3S)-3-methylmorpholin-4-yl]-6-(1-methylsulfonylcyclopropyl)pyrimidin-2-yl]phenyl]thiourea] | 5.31 |
| CCNC(=O)Nc1ccc(-c2nc(N3[C@@H](C)COC[C@@H]3C)cc(C3(S(C)(=O)=O)CC3)n2)cc1 [Example 91b, 1-[4-[4-[(3S,5S)-3,5-dimethylmorpholin-4-yl]-6-(1-methylsulfonylcyclopropyl)pyrimidin-2-yl]phenyl]-3-ethylurea] | 5.21 |
| CNC(=O)Nc1ccc(-c2nc(N3CCOC[C@@H]3C)cc(C3(S(=O)(=O)c4ccc(OC(F)F)cc4)CC3)n2)cc1 [Example 64a, 1-[4-[4-[1-[4-(difluoromethoxy)phenyl]sulfonyl-cyclopropyl]-6-[(3S)-3-methylmorpholin-4-yl]pyrimidin-2-yl]phenyl]-3-methylurea] | 5.2 |
| C[C@H]1COCCN1c1cc(C2(S(=O)(=O)CCCO)CCC2)nc(-c2ccc(NC(=O)Nc3ncns3)cc2)n1 [Example 43s, 1-[4-[4-[1-(3-hydroxypropylsulfonyl)cyclobu-tyl]-6-[(3S)-3-methylmorpholin-4-yl]pyrimidin-2-yl]phenyl]-3-(1,2,4-thiadiazol-5-yl)urea] | 6.29 |
| C[C@H]1COCCN1c1cc(C2(S(=O)(=O)C3CCOC3)CC2)nc(-c2ccc(NC(=O)NC3CC3)cc2)n1 (stereo partly drawn) [Example 94i, 3-cyclopropyl-1-[4-[4-[(3S)-3-methylmorpholin-4-yl]-6-[1-(oxolan-3-ylsulfonyl)cyclopropyl]pyrimidin-2-yl]phenyl]urea] | 12.1 |
| CNC(=O)Nc1ccc(-c2nc(N3CCOCC3)cc(C3(C(=O)N4CCOC[C@@H]4C)CC3)n2)cc1 [Example 32a, 3-methyl-1-[4-[4-[1-[(3S)-3-methylmorpholine-4-carbonyl]cyclopropyl]-6-morpholin-4-ylpyrimidin-2-yl]phenyl]urea] | 42.5 |
| CNC(=O)Nc1ccc(-c2nc(N3CCOC[C@@H]3C)cc(C3(S(=O)(=O)c4nc(C)c(C)s4)CC3)n2)cc1 [Example 80d, 1-[4-[4-[1-[(4,5-dimethyl-1,3-thiazol-2-yl)sulfonyl]cyclopropyl]-6-[(3S)-3-methylmorpholin-4-yl]pyrimidin-2-yl]phenyl]-3-methylurea] | 9.51 |
| C[C@H]1COCCN1c1cc(C2(S(=O)(=O)c3ccc(C#N)cc3)CC2)nc(-c2ccc(NC(=O)NCC(F)F)cc2)n1 [Example 77d, 1-[4-[4-[1-(4-cyanophenyl)sulfonylcyclopropyl]-6-[(3S)-3-methylmorpholin-4-yl]pyrimidin-2-yl]phenyl]-3-(2,2-difluoroethyl)urea] | 10.1 |
| CNC(=O)Nc1ccc(-c2nc(N3CCOC[C@@H]3C)cc(C3(S(=O)(=O)c4ccc(C#N)cc4)CC3)n2)cc1 [Example 77a, 1-[4-[4-[1-(4-cyanophenyl)sulfonylcyclopropyl]-6-[(3S)-3-methylmorpholin-4-yl]pyrimidin-2-yl]phenyl]-3-methylurea] | 5.24 |

Further lines, results first:

| IC50 [nM] | Compound |
| --- | --- |
| 8.6 | CCNC(=O)Nc1ccc(-c2nc(N3CCOC[C@@H]3C)cc(C3(S(=O)(=O)c4ccc(C#N)cc4)CC3)n2)cc1 [Example 77b, 3-[4-[4-[1-(4-cyanophenyl)sulfonylcyclopropyl]-6-[(3S)-3-methylmorpholin-4-yl]pyrimidin-2-yl]phenyl]-1-ethylurea] |
| 5.45 | C[C@H]1COCCN1c1cc(C2(S(=O)(=O)CCCO)CCC2)nc(-c2ccc(NC(=O)Nc3nccs3)cc2)n1 [Example 43t, 1-[4-[4-[1-(3-hydroxypropylsulfonyl)cyclobu-tyl]-6-[(3S)-3-methylmorpholin-4-yl]pyrimdiin-2-yl]phenyl]-3-(1,3-thiazol-2-yl)urea] |
| 10.9 | O=C(NCCO)Nc1ccc(-c2nc(N3CCOCC3)cc(C3(C(=O)NC4CC4)CC3)n2)cc1 [Example 34b, N-cyclopropyl-1-[2-[4-(2-hydroxyethylcarbamoylamino)phe-nyl]-6-morpholin-4-ylpyrimidin-4-yl]cyclopropane-1-carboxamide] |
| 19.1 | C[C@H]1COCCN1c1cc(C2(S(=O)(=O)c3cc(F)ccc3F)CC2)nc(-c2ccc(NC(=O)NC3CC3)cc2)n1 [Example 60a, 3-cyclopropyl-1-[4-[4-[1-(2,5-difluorophenyl)sulfonylcyclopropyl]-6-[(3S)-3-methylmorpholin-4-yl]pyrimidin-2-yl]phenyl]urea] |
| 0.442 | C[C@H]1COCCN1c1cc(C2(S(=O)(=O)c3ccccn3)CC2)nc(-c2ccc(NC(=O)Nc3cnn(C)c3)cc2)n1 [Example 28l, 1-[4-[4-[(3S)-3-methylmorpholin-4-yl]-6-(1-pyridin-2-ylsulfonylcyclopropyl)pyrimidin-2-yl]phenyl]-3-(1-methylpyrazol-4-yl)urea] |
| 3.68 | C[C@H]1COC[C@H](C)N1c1cc(C2(S(C)(=O)=O)CC2)nc(-c2ccc(NC(=O)NCCF)cc2)n1 [Example 91c, 1-[4-[4-[(3S,5S)-3,5-dimethylmorpholin-4-yl]-6-(1-methylsulfonylcyclopropyl)pyrimidin-2-yl]phenyl]-3-(2-fluoroethyl)urea] |
| 293 | Cc1noc(C)c1S(=O)(=O)C1(c2cc(N3CCOC[C@@H]3C)nc(-c3ccc(NC(=O)NCC4(O)CC4)cc3)n2)CC1 [Example 59e, 1-[4-[4-[1-[(3,5-dimethyl-1,2-oxazol-4-yl)sulfonyl]cyclopropyl]-6-[(3S)-3-methylmorpholin-4-yl]pyrimidin-2-yl]phenyl]-3-[(1-hydroxycyclopropyl)methyl]urea] |
| 1.35 | C[C@H]1COCCN1c1cc(C2(S(=O)(=O)c3ccc(F)c(F)c3)CC2)nc(-c2ccc(NC(=O)NC3CC3)cc2)n1 [Example 64i, 3-cyclopropyl-1-[4-[4-[1-(3,4-difluorophenyl)sulfonylcyclopro-pyl]-6-[(3S)-3-methylmorpholin-4-yl]pyrimidin-2-yl]phenyl]urea] |
| 2.02 | O=C(Nc1ccc(-c2nc(N3CCOCC3)cc(C3(S(=O)(=O)C4CC4)CCC3)n2)cc1)NC1CC1 [Example 13p, 3-cyclopropyl-1-[4-[4-(1-cyclopropylsulfonylcyclobutyl)-6-morpholin-4-ylpyrimidin-2-yl]phenyl]urea] |
| 0.237 | C[C@H]1COCCN1c1cc(C2(S(C)(=O)=O)CCC2)nc(-c2ccc(NC(=O)Nc3ccccn3)cc2)n1 [Example 5l, 1-[4-[4-[(3S)-3-methylmorpholin-4-yl]-6-(1-methylsulfonylcyclobutyl)pyrimidin-2-yl]phenyl]-3-pyridin-2-yl-urea] |

Reference: patent publication US20090018134A1, “Compounds - 945” (AstraZeneca AB, priority 2007, published 2009)
